{"source": "patent US7902181B2", "about": "“Compounds 010” (AstraZeneca AB, priority 2007, dated 2011)", "note": "Counter-ions that a name gives are not always drawn.", "data": [{"biological_target": "Recombinant Human (rh) DPP1 (Homo sapiens, UniProt P53634)", "sequence (P53634 25-463)": "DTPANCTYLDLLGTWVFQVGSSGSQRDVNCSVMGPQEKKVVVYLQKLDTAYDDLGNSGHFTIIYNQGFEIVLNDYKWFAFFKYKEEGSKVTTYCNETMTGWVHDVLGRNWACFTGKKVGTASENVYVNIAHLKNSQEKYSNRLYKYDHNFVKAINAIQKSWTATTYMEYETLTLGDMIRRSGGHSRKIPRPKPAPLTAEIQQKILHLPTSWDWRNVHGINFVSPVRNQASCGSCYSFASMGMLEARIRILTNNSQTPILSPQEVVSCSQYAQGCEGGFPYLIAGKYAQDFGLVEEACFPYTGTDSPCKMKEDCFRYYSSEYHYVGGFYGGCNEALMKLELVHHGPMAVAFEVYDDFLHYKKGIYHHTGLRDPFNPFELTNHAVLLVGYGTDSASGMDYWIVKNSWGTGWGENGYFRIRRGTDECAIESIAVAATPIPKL", "test": "Fluorescence Assay for Recombinant Human (rh) DPP1", "format": "biochemical", "conditions": "rhDPP1; substrate H-Gly-Arg-AMC; pH5.0; 30 min pre-incubation, 60 min reaction at 22° C.; highest concentration 10 μM; read-out: DPP1 activity, pIC50 (converted)", "procedure": "Fluorescence Assay for Recombinant Human (rh) DPP1\nThe activity of DPP1 was determined by measuring the enzymatic release of aminomethyl coumarin (AMC) from the peptide substrate (H-Gly-Arg-AMC), which leads to an increase in fluorescence intensity at λex=350 nm and λem=450 nm. The assay was carried out in black 384 well plates in a final volume of 50 μl at 22° C. The assay conditions contained the following: 25 mM piperazine buffer pH5.0; 50 mM NaCl, 5 mM DTT; 0.01% (v/v) Triton X-100; 100 μM H-Gly-Arg-AMC and rhDPP1 ([…]). Potential inhibitors were made up in DMSO and then diluted in the assay to give a final concentration of 1% (v/v) DMSO. A 12-point half-log dilution of the inhibitors (highest concentration 10 μM) was tested and the pIC50 determined using a 4-parameter logistic equation in a non-linear curve fitting routine. A standard DPP1 inhibitor (vinyl sulfone, see below) was used as a positive control in the assay. Routinely, inhibitors were pre-incubated with rhDPP1 for 30 min prior to the addition of the peptide substrate to start the reaction for a further 60 min at 22° C. After that the plates were immediately read in a fluorescence plate reader using the above emission and excitation wavelengths [modified from Kam, C M, Gotz, M G, Koot, G, McGuire, M J, Thiele, D L, Hudig, D & Powers, J C (2004). Arch Biochem Biophys, 427, 123-134 & McGuire, M J, Lipsky, P E & Thiele, D L (1992). Arch Biochem Biophys, 295, 280-288].", "units": {"IC50": "nM"}, "values": [{"smiles": "CN(C)C(=O)c1cc(Cl)cc(-c2ccc(CC(C#N)NC(=O)[C@@H]3CCCCN3)cn2)c1", "note": "(mixture of isomers) [Example 81, (S)-N-((S)-2-(6-(3-Chloro-5-(dimethylcarbamoyl)phenyl)pyridin-3-yl)-1-cyanoethyl)piperidine-2-carboxamide Trifluoroacetate]", "IC50": 794}, {"smiles": "N#CC(Cc1ccc(-c2ccc(S(=O)(=O)N3CCOCC3)cc2)cc1)NC(=O)[C@@H]1CCCCN1", "note": "(mixture of isomers) [Example 94, (S)-N-((S)-1-Cyano-2-(4′-(morpholinosulfonyl)biphenyl-4-yl)ethyl)piperidine-2-carboxamide Trifluoroacetate]", "IC50": 15.8}, {"smiles": "N#C[C@H](Cc1ccc(-c2cccc(Cl)c2)cc1)NC(=O)[C@@H]1CCCCN1", "note": "[Example 1, (S)-N-((S)-2-(3′-Chlorobiphenyl-4-yl)-1-cyanoethyl)piperidine-2-carboxamide Trifluoroacetate]", "IC50": 63.1}, {"smiles": "N#C[C@H](Cc1ccc(-c2cccc(CN3CCCCC3)c2)cc1)NC(=O)[C@@H]1CCCCN1", "note": "[Example 2, (S)-N-((S)-1-Cyano-2-(3′-(piperidin-1-ylmethyl)biphenyl-4-yl)ethyl)piperidine-2-carboxamide di-trifluoroacetate]", "IC50": 79.4}, {"smiles": "N#C[C@H](Cc1ccc(-c2ccccc2)cc1)NC(=O)[C@@H]1CCCN1", "note": "[Example 3, (S)-N-((S)-2-(Biphenyl-4-yl)-1-cyanoethyl)pyrrolidine-2-carboxamide]", "IC50": 316}, {"smiles": "N#C[C@H](Cc1ccc(-c2cnn(Cc3ccccc3)c2)cc1)NC(=O)[C@@H]1CCCCN1", "note": "[Example 4, (S)-N-((S)-2-(4-(1-Benzyl-1H-pyrazol-4-yl)phenyl)-1-cyanoethyl)-piperidine-2-carboxamide Trifluoroacetate]", "IC50": 31.6}, {"smiles": "N#C[C@H](Cc1ccc(-c2ccc(C(N)=O)cc2)cc1)NC(=O)[C@@H]1CCCCN1", "note": "[Example 5, (S)-N-((S)-2-(4′-Carbamoylbiphenyl-4-yl)-1-cyanoethyl)piperidine-2-carboxamide Trifluoroacetate]", "IC50": 63.1}, {"smiles": "N#Cc1cccc(-c2ccc(C[C@@H](C#N)NC(=O)[C@@H]3CCCCN3)cc2)c1", "note": "[Example 6, (S)-N-((S)-1-Cyano-2-(3′-cyanobiphenyl-4-yl)ethyl)piperidine-2-carboxamide Trifluoroacetate]", "IC50": 63.1}, {"smiles": "N#C[C@H](Cc1ccc(-c2cccc(CN)c2)cc1)NC(=O)[C@@H]1CCCCN1", "note": "[Example 7, (S)-N-((S)-2-(3′-(Aminomethyl)biphenyl-4-yl)-1-cyanoethyl)piperidine-2-carboxamide Ditrifluoroacetate]", "IC50": 100}, {"smiles": "CC(=O)Nc1cccc(-c2ccc(C[C@@H](C#N)NC(=O)[C@@H]3CCCCN3)cc2)c1", "note": "[Example 8, (S)-N-((S)-2-(3′-Acetamidobiphenyl-4-yl)-1-cyanoethyl)piperidine-2-carboxamide Trifluoroacetate]", "IC50": 126}, {"smiles": "N#C[C@H](Cc1ccc(-c2ccc(CN3CCOCC3)cc2)cc1)NC(=O)[C@@H]1CCCCN1", "note": "[Example 9, (S)-N-((S)-1-Cyano-2-(4′-(morpholinomethyl)biphenyl-4-yl)ethyl)piperidine-2-carboxamide Trifluoroacetate]", "IC50": 158}, {"smiles": "N#C[C@H](Cc1ccc(-c2cccnc2)cc1)NC(=O)[C@@H]1CCCCN1", "note": "[Example 10, (S)-N-((S)-1-Cyano-2-(4-(pyridin-3-yl)phenyl)ethyl)piperidine-2-carboxamide Trifluoroacetate]", "IC50": 251}, {"smiles": "Cc1cc(O)ccc1-c1ccc(C[C@@H](C#N)NC(=O)[C@@H]2CCCCN2)cc1", "note": "[Example 11, (S)-N-((S)-1-Cyano-2-(4′-hydroxy-2′-methylbiphenyl-4-yl)ethyl)piperidine-2-carboxamide Trifluoroacetate]", "IC50": 316}, {"smiles": "N#C[C@H](Cc1ccc(-c2cccc(C(=O)O)c2)cc1)NC(=O)[C@@H]1CCCCN1", "note": "[Example 12, 4′-((S)-2-Cyano-2-((S)-piperidine-2-carboxamido)ethyl)biphenyl-3-carboxylic Acid Trifluoroacetate]", "IC50": 398}, {"smiles": "N#C[C@H](Cc1ccc(-c2ccccc2O[C@@H]2CCNC2)cc1)NC(=O)[C@@H]1CCCCN1", "note": "[Example 13, (S)-N-((S)-1-Cyano-2-(2′-((R)-pyrrolidin-3-yloxy)biphenyl-4-yl)ethyl)piperidine-2-carboxamide Ditrifluoroacetate]", "IC50": 794}, {"smiles": "N#C[C@H](Cc1ccc(-c2cc3ccccc3[nH]2)cc1)NC(=O)[C@@H]1CCCCN1", "note": "[Example 14, (S)-N-((S)-2-(4-(1H-Indol-2-yl)phenyl)-1-cyanoethyl)piperidine-2-carboxamide Trifluoroacetate]", "IC50": 7.94}, {"smiles": "COc1cccc(-c2ccc(C[C@@H](C#N)NC(=O)[C@@H]3CCCCN3)cc2)c1", "note": "[Example 15, (2S)-N-[(1S)-1-Cyano-2-(3′-methoxybiphenyl-4-yl)ethyl]piperidine-2-carboxamide Trifluoroacetate]", "IC50": 100}, {"smiles": "N#C[C@H](Cc1ccc(-c2ccccc2)cc1)NC(=O)[C@@H]1CCCCN1", "note": "[Example 16, Piperidine-2-carboxylic acid (2-biphenyl-4-yl-1-cyano-ethyl)-amide]", "IC50": 126}, {"smiles": "N#C[C@H](Cc1ccc(-c2ccccc2)cc1)NC(=O)[C@@H]1C[C@@H](O)CN1", "note": "[Example 17, (2S,4R)-N-((S)-2-(Biphenyl-4-yl)-1-cyanoethyl)-4-hydroxypyrrolidine-2-carboxamide]", "IC50": 200}, {"smiles": "N#Cc1cccc(-c2ccc(C[C@@H](C#N)NC(=O)[C@@H]3CCN3)cc2)c1", "note": "[Example 19, (S)-N-((S)-1-Cyano-2-(3′-cyanobiphenyl-4-yl)ethyl)azetidine-2-carboxamide]", "IC50": 200}, {"smiles": "CN(C)S(=O)(=O)c1ccc(-c2ccc(C[C@@H](C#N)NC(=O)[C@@H]3CCCCN3)cc2)cc1", "note": "[Example 20, (2S)-N-[(1S)-1-Cyano-2-[4-[4-(dimethylsulfamoyl)phenyl]phenyl]ethyl]piperidine-2-carboxamide trifluoroacetate]", "IC50": 25.1}, {"smiles": "N#C[C@H](Cc1ccc(-c2cnoc2)cc1)NC(=O)[C@@H]1CCCCN1", "note": "[Example 21, (2S)-N-[(1S)-1-Cyano-2-(4-1,2-oxazol-4-ylphenyl)ethyl]piperidine-2-carboxamide trifluoroacetate]", "IC50": 50.1}, {"smiles": "CSc1cccc(-c2ccc(C[C@@H](C#N)NC(=O)[C@@H]3CCCCN3)cc2)c1", "note": "[Example 22, (2S)-N-[(1S)-1-Cyano-2-[4-(3-methylsulfanylphenyl)phe-nyl]ethyl]piperidine-2-carboxamide trifluoroacetate]", "IC50": 63.1}, {"smiles": "N#C[C@H](Cc1ccc(-c2ccc(O)cc2)cc1)NC(=O)[C@@H]1CCCCN1", "note": "[Example 23, (2S)-N-[(1S)-1-Cyano-2-[4-(4-hydroxyphenyl)phenyl]ethyl]piperidine-2-carboxamide trifluoroacetate]", "IC50": 63.1}, {"smiles": "N#Cc1ccc(-c2ccc(C[C@@H](C#N)NC(=O)[C@@H]3CCCCN3)cc2)cc1", "note": "[Example 24, (2S)-N-[(1S)-1-Cyano-2-[4-(4-cyanophenyl)phenyl]ethyl]piperidine-2-carboxamide trifluoroacetate]", "IC50": 15.8}, {"smiles": "COc1ccc(-c2ccc(C[C@@H](C#N)NC(=O)[C@@H]3CCCCN3)cc2)cc1", "note": "[Example 25, (2S)-N-[(1S)-1-Cyano-2-[4-(4-methoxyphenyl)phenyl]ethyl]piperidine-2-carboxamide trifluoroacetate]", "IC50": 63.1}, {"smiles": "Cn1cc(-c2ccc(C[C@@H](C#N)NC(=O)[C@@H]3CCCCN3)cc2)cn1", "note": "[Example 26, (2S)-N-[(1S)-1-Cyano-2-[4-(1-methylpyrazol-4-yl)phenyl]ethyl]piperidine-2-carboxamide trifluoroacetate]", "IC50": 63.1}, {"smiles": "N#C[C@H](Cc1ccc(-c2ccc(CCCO)cc2)cc1)NC(=O)[C@@H]1CCCCN1", "note": "[Example 27, (2S)-N-[(1S)-1-Cyano-2-[4-[4-(3-hydroxypropyl)phenyl]phenyl]ethyl]piperidine-2-carboxamide trifluoroacetate]", "IC50": 63.1}, {"smiles": "N#C[C@H](Cc1ccc(-c2ccc3c(c2)OCO3)cc1)NC(=O)[C@@H]1CCCCN1", "note": "[Example 28, (2S)-N-[(1S)-2-(4-Benzo[1,3]dioxol-5-ylphenyl)-1-cyano-ethyl]piperidine-2-carboxamide trifluoroacetate]", "IC50": 100}, {"smiles": "N#C[C@H](Cc1ccc(-c2ccc(F)c(F)c2)cc1)NC(=O)[C@@H]1CCCCN1", "note": "[Example 29, (2S)-N-[(1S)-1-Cyano-2-[4-(3,4-difluorophenyl)phenyl]ethyl]piperidine-2-carboxamide trifluoroacetate]", "IC50": 100}, {"smiles": "N#C[C@H](Cc1ccc(-c2ccc(F)cc2OCc2ccccc2)cc1)NC(=O)[C@@H]1CCCCN1", "note": "[Example 30, (2S)-N-[(1S)-1-Cyano-2-[4-(4-fluoro-2-phenylmethoxy-phenyl)phenyl]ethyl]pipe-ridine-2-carboxamide trifluoroacetate]", "IC50": 100}, {"smiles": "COc1ccc(-c2ccc(C[C@@H](C#N)NC(=O)[C@@H]3CCCCN3)cc2)cc1F", "note": "[Example 31, (2S)-N-[(1S)-1-Cyano-2-[4-(3-fluoro-4-methoxy-phenyl)phenyl]ethyl]pipe-ridine-2-carboxamide trifluoroacetate]", "IC50": 158}]}]}
